Measured values from publication doi:10.1101/2025.01.15.632643v1 (biorxiv, 2025).
pIC50: −log10 of the molar value. Where two headings read alike, the source gives them in different places.

Experiments:
[1] = target: T1, His-ZZ-DYRK1A kinase domain (DYRK1A protein) (Homo sapiens, UniProt Q13627); assay: luminescent kinase assay after transient heating; type: biochemical
[2] = target: T1, His-ZZ-DYRK1A kinase domain (DYRK1A protein); assay: biochemical; details: read-out: kon
[3] = target: T1, His-ZZ-DYRK1A kinase domain (DYRK1A protein); assay: biochemical; details: read-out: koff
[4] = target: T2, His-ZZ-DYRK1B kinase domain (DYRK1B protein) (Homo sapiens, UniProt Q9Y463); details: read-out: DYRK1B –; inhibitor
[5] = target: T2, His-ZZ-DYRK1B kinase domain (DYRK1B protein); details: read-out: DYRK1B Transient heating; inhibitor
[6] = target: T2, His-ZZ-DYRK1B kinase domain (DYRK1B protein); assay: biochemical; details: read-out: kon
[7] = target: T2, His-ZZ-DYRK1B kinase domain (DYRK1B protein); assay: biochemical; details: read-out: koff
[8] = target: T2, His-ZZ-DYRK1B kinase domain (DYRK1B protein); assay: luminescent kinase assay after transient heating; type: biochemical; details: […] °C […] sec heating with compound, then ATP […], DYRKtide […], pH […]
[9] = target: T1, His-ZZ-DYRK1A kinase domain (DYRK1A protein); details: read-out: DYRK1A –; without transient heating; inhibitor
[10] = target: T1, His-ZZ-DYRK1A kinase domain (DYRK1A protein); details: read-out: DYRK1A Transient heating; with transient heating (20 sec); inhibitor
[11] = target: T2, His-ZZ-DYRK1B kinase domain (DYRK1B protein); details: read-out: DYRK1B Transient heating; with transient heating (20 sec); inhibitor
[12] = target: T2, His-ZZ-DYRK1B kinase domain (DYRK1B protein); details: read-out: DYRK1B –; without transient heating; inhibitor

## COc1ccc(/C=C2\SC(=S)NC2=O)cc1C#C[Si](C)(c1ccccc1)c1ccccc1 [compound 2, dp-FINDY]
[1]
  pIC50: 5.59
[2]
  kon: 0.28 M⁻¹ s⁻¹
[3]
  koff: 2.2e-07 s⁻¹
[4]
  pIC50: < 4.49
[5]
  pIC50: 5.60
[6]
  kon: 200 M⁻¹ s⁻¹
[7]
  koff: 0.00012 s⁻¹

## COc1ccc(/C=C2\NC(=S)NC2=O)cc1C#C[Si](C)(c1ccccc1)c1ccccc1 [compound 4, RD1408]
[5]
  pIC50: 4.85

## CCOc1cc(/C=C2\SC(=S)NC2=O)ccc1O [compound 5, RD0392]
[4]
  pIC50: 5.44
[5]
  pIC50: 5.46

## C#Cc1cc(/C=C2\SC(=S)NC2=O)ccc1OC [compound 11, RD0448]
[8]
  pIC50: 4.80
[1]
  pIC50: 4.42
[4]
  pIC50: 4.28

## C#Cc1cc(/C=C2\SC(=S)NC2=O)ccc1O [compound 12, RD0562]
[4]
  pIC50: 4.64
[5]
  pIC50: 4.64

## COc1ccc(/C=C2\SC(=S)NC2=O)cc1 [compound 13, RD1486]
[4]
  pIC50: 5.01
[5]
  pIC50: 4.77

## COc1ccc(/C=C2\SC(=S)NC2=O)cc1/C=C/[Si](C)(C)C [dFINDY]
[9]
  pIC50: < 4.49
[10]
  pIC50: 5.31

## COc1ccc(/C=C2\SC(=S)NC2=O)cc1/C=C/C1CCCCC1 [dscy-dFINDY]
[9]
  pIC50: < 4.49
[10]
  pIC50: 5.39

## COc1ccc(/C=C2\SC(=S)NC2=O)cc1/C=C/C(C)(C)C [dstb-dFINDY]
[11]
  pIC50: 5.13
[9]
  pIC50: < 4.49
[10]
  pIC50: < 4.49

## COc1ccc(/C=C2\SC(=S)NC2=O)cc1C#C[Si](c1ccccc1)(c1ccccc1)c1ccccc1 [tp-FINDY]
[12]
  pIC50: < 4.49
[11]
  pIC50: 5.24

## COc1ccc(/C=C2\SC(=S)NC2=O)cc1C#C[Si]([Si](C)(C)C)([Si](C)(C)C)[Si](C)(C)C [ts-FINDY]
[12]
  pIC50: < 4.49
[11]
  pIC50: 5.34
